Experiments:
[1] = reported; cited from earlier work
AAG = settings: reported; cited from earlier work
HSA [2] = target: T1, HSA (Homo sapiens, UniProt P02768); settings: 1 μM drug + 1 μM DS in HSA; 10 mg DCC bed
Procedure: Set-Up of Incubation Study. […] Allow samples to sit at room temperature for one hour.
DCC Extraction Procedure; Protein Precipitation Procedure; Final Sample Preparation. Performed as described in Example 1 and 3.
Chemical Analysis. The analysis of DS and the internal standard is conducted with liquid chromatography coupled to mass spectrometry with electrospray ionization. For a given sample, the peak area of the DS and the internal standard are measured and a ratio (PAR) of these two values is determined.

HSA [3] = target: T1, HSA; experiment: percent recovery from HSA with the 96-well ACCUPRO DCC device; assay type: in vitro ADME
Procedure: Chemical Analysis. […] For a given sample, the peak areas of the particular drug and its internal standard are measured and a ratio of these two values is determined. The peak area ratio (PAR) of the (+) DCC-extracted sample is divided by its corresponding (−) DCC extracted sample PAR to determine a percent recovery value. This recovery value is not a % HSA bound value.
Preparation of DCC plate. Prepare a DCC filter plate with 5 mg and 10 mg bed sizes as described in Example 1 and 3.
Set-Up of Incubation Study.

T1 sequence (P02768 25-609): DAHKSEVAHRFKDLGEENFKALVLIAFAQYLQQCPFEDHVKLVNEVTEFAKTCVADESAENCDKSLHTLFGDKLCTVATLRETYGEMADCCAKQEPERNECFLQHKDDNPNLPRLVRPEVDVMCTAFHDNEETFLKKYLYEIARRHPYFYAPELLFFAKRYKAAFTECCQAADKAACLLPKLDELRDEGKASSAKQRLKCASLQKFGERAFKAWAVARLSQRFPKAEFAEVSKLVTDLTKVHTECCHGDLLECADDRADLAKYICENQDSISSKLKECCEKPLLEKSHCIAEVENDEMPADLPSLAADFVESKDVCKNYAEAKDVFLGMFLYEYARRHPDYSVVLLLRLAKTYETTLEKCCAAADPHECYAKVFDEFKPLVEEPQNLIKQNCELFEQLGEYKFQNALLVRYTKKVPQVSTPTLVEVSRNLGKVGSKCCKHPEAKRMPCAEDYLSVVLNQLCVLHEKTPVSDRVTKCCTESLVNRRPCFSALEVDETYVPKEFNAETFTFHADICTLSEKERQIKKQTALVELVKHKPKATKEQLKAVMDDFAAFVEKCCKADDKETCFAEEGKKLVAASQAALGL

Row | DS (dansylsarcosine) PAR in final sample preparation (HSA [2]) | percent recovery (relative ranking) (HSA [3]; HSA, naproxen versus ketorolac) | percent recovery from HSA (HSA [3]; drug at 1 μM, 5 mg and 10 mg DCC bed, compared with the usual concentrations (217 μM and 0.5 μM)) | SMILES | plasma bound [1] | affinity to AAG / HSA (AAG)
1 | – | – | – | CN(C)CCCN1c2ccccc2Sc2ccc(Cl)cc21 [Chlorpromazine] | 95-98% | high affinity to AAG and not HSA
2 | higher PAR | lower percent recovery | comparable to values obtained above | O=C(c1ccccc1)c1ccc2n1CCC2C(=O)O (centres unmarked) [Ketorolac] | – | –

Source: US20060019410A1, “Apparatus, kits and methods for evaluating binding interactions, for detecting and quantifying binding molecules, and for sample preparation” (Qualyst, Inc., priority 2004, published 2006)
